# Data as given in ChEMBL document CHEMBL1133866, “Discovery of human CCR5 antagonists containing hydantoins for the treatment of HIV-1 infection” (Bioorg Med Chem Lett, 2001).
# How the values were obtained:
# [1] = target: T1, C-C chemokine receptor type 5 (Homo sapiens, UniProt P51681); assay: Percent inhibition of the [125I]-MIP-1 alpha binding towards C-C chemokine receptor type 5 stably expressed in Chinese hamster ovary (CHO) cells at a concentration of 1 uM; assay type: cell-based
# Target sequence in this assay (P51681 whole entry, looked up): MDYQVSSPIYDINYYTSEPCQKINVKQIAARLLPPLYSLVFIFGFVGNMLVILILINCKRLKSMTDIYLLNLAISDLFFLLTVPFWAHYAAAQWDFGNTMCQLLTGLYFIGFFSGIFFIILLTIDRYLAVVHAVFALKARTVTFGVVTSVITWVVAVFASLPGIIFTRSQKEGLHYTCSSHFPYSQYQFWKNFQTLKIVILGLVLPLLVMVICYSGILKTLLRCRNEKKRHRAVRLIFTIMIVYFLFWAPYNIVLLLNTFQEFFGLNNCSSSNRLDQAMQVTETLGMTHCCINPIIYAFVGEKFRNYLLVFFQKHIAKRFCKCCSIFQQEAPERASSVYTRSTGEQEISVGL
# [2] = target: T1, C-C chemokine receptor type 5; assay: Binding affinity against C-C chemokine receptor type 5 stably expressed in Chinese hamster ovary (CHO) cells using [125I]-MIP-1 alpha as the radioligand; assay type: cell-based
# Target sequence in this assay (P51681 whole entry): as the sequence (P51681 whole entry, looked up) above
# [3] = target: C-X-C chemokine receptor type 4 (Homo sapiens, UniProt P61073); assay: Inhibitory activity against C-X-C chemokine receptor type 4
# Chain of C-X-C chemokine receptor type 4 (P61073 whole entry): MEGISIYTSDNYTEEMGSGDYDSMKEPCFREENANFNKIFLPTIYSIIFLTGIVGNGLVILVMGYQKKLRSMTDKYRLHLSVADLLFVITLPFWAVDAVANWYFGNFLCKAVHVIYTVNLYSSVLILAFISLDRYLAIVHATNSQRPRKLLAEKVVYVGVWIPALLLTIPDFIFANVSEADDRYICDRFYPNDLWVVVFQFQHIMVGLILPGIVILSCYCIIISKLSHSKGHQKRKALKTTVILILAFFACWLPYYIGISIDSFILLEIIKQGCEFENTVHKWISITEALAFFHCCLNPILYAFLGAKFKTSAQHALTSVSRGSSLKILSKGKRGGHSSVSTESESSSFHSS
# [4] = target: T2, C-C chemokine receptor type 1 (Homo sapiens, UniProt P32246); assay: Inhibitory activity against C-C chemokine receptor type 1
# T2 sequence (P32246 whole entry): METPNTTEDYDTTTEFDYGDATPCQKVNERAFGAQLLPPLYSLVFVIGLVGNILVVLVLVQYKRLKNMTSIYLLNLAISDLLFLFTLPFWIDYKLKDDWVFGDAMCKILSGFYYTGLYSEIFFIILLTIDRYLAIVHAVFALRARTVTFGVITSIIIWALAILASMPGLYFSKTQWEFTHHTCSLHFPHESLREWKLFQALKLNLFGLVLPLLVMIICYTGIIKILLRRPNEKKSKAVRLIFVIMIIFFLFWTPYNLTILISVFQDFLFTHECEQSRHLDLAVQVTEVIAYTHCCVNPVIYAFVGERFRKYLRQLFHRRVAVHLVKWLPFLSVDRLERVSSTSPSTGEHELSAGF
# [5] = target: T3, C-C chemokine receptor type 4 (Homo sapiens, UniProt P51679); assay: Inhibitory activity against C-C chemokine receptor type 4
# T3 sequence (P51679 whole entry): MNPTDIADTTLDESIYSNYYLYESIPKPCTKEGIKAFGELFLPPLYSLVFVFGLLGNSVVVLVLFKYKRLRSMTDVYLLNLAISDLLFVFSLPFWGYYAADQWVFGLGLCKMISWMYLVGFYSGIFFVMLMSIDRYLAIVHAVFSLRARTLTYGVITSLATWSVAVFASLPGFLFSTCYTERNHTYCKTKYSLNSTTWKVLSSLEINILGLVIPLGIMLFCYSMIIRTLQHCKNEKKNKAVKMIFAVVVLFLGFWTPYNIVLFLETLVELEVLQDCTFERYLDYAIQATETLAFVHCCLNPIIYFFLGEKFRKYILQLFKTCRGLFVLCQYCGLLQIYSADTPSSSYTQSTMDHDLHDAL
# [6] = test system: Human immunodeficiency virus 1; assay: Antiviral activity against HIV-1 viral replication in isolated peripheral blood mononuclear cells (PBMCs).; assay type: functional
# [7] = target: C-C chemokine receptor type 2 (Homo sapiens, UniProt P41597); assay: Inhibitory activity against C-C chemokine receptor type 2
# Chain of C-C chemokine receptor type 2 (P41597 whole entry): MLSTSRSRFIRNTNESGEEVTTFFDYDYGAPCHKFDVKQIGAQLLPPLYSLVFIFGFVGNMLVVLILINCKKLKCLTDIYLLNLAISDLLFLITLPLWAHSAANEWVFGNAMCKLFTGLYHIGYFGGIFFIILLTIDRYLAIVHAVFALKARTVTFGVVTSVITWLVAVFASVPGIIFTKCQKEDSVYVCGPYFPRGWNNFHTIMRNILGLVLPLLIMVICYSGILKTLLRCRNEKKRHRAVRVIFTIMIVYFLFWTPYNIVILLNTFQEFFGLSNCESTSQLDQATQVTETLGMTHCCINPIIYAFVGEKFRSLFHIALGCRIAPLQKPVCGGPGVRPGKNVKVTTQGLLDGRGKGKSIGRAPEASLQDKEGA
# [8] = target: T4, C-C chemokine receptor type 3 (Homo sapiens, UniProt P51677); assay: Inhibitory activity against C-C chemokine receptor type 3
# T4 sequence (P51677 whole entry): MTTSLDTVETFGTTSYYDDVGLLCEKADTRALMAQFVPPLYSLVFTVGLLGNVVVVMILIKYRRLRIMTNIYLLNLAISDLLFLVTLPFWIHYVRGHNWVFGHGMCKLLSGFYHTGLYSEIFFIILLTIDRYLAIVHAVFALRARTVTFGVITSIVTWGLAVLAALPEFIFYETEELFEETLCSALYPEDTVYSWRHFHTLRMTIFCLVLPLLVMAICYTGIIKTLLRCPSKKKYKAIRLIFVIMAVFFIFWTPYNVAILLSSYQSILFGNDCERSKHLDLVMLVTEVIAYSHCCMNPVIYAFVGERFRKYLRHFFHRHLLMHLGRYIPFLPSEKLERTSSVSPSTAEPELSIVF
# [9] = target: T1, C-C chemokine receptor type 5; assay: Percent inhibition of the [125I]-MIP-1 alpha binding towards C-C chemokine receptor type 5 stably expressed in Chinese hamster ovary (CHO) cells at a concentration of 1.7 uM; assay type: cell-based
# Target sequence in this assay (P51681 whole entry, looked up): as the sequence (P51681 whole entry, looked up) above
# [10] = target: T1, C-C chemokine receptor type 5; assay: Percent inhibition of the [125I]-MIP-1 alpha binding towards C-C chemokine receptor type 5 stably expressed in Chinese hamster ovary (CHO) cells at a concentration of 10 uM; assay type: cell-based
# Target sequence in this assay (P51681 whole entry, looked up): as above
smiles,measurement,setting,value
O=C1N[C@H](Cc2c[nH]cn2)C(=O)N1CC(CCN1CCC(c2ccccc2)CC1)c1ccccc1 (stereo partly drawn),inhibition,[1],25%
CCN(C(=O)OCc1ccccc1)C1CCN(CCC(C)(CN2C(=O)N[C@H](Cc3c[nH]c4ccccc34)C2=O)c2cccc(Cl)c2)CC1 (stereo partly drawn),IC50,[2],77 nM
CCN(C(=O)OCc1ccccc1)C1CCN(CCC(CN2C(=O)N[C@H](Cc3c[nH]c4ccccc34)C2=O)c2ccccc2)CC1 (stereo partly drawn),IC50,[3],> 1000 nM
same,IC50,[4],> 1000 nM
same,IC50,[5],> 1000 nM
same,IC95,[6],25000 nM
same,IC50,[7],> 1000 nM
same,IC50,[8],> 1000 nM
same,IC50,[2],13 nM
C=CCN(C(=O)OCc1ccccc1)C1CCN(CCC(CN2C(=O)N[C@H](Cc3c[nH]c4ccccc34)C2=O)c2ccccc2)CC1 (stereo partly drawn),IC50,[3],> 1000 nM
same,IC50,[4],> 1000 nM
same,IC50,[5],> 1000 nM
same,IC95,[6],> 3000 nM
same,IC50,[7],> 1000 nM
same,IC50,[8],> 1000 nM
same,IC50,[2],7 nM
O=C1N[C@H](Cc2c[nH]c3ccccc23)C(=O)N1CC(CCN1CCC(c2ccccc2)CC1)c1ccccc1 (stereo in doubt; 24),inhibition,[1],71%
CCN(C(=O)OCc1ccccc1)C1CCN(CCC(C)(CN2C(=O)N[C@H](Cc3c[nH]c4ccccc34)C2=O)c2ccccc2)CC1 (stereo partly drawn),IC50,[3],> 1000 nM
same,IC50,[4],> 1000 nM
same,IC50,[5],> 1000 nM
same,IC95,[6],12500 nM
same,IC50,[7],> 1000 nM
same,IC50,[8],> 1000 nM
same,IC50,[2],4 nM
O=C1CC2(CCN(CCC(CN3C(=O)N[C@@H](c4ccccc4)C3=O)c3cccc(Cl)c3)CC2)c2ccccc21 (stereo partly drawn),inhibition,[1],52%
O=C1N[C@H](Cc2c[nH]c3ccccc23)C(=O)N1CC(CCN1CCC(c2ccccc2)CC1)c1cccc(Cl)c1 (stereo in doubt),IC50,[2],25 nM
CCN(C(=O)OCc1ccccc1)C1CCN(CCC(CN2C(=O)N[C@H](Cc3c[nH]c4ccccc34)C2=O)c2cccc(Cl)c2)CC1 (stereo partly drawn),IC50,[3],> 1000 nM
same,IC50,[4],> 1000 nM
same,IC50,[5],> 1000 nM
same,IC95,[6],12500 nM
same,IC50,[7],> 1000 nM
same,IC50,[8],> 1000 nM
same,IC50,[2],2 nM
"O=C1N[C@H](Cc2c[nH]c3ccccc23)C(=O)N1CC(CCN1CCC(c2ccccc2)CC1)c1cccc(Cl)c1 (single isomer, unassigned)",IC50,[2],80 nM
Cn1cc(C[C@H]2NC(=O)N(CC(CCN3CCC(c4ccccc4)CC3)c3cccc(Cl)c3)C2=O)c2ccccc21 (stereo partly drawn),inhibition,[1],43%
O=C1N[C@H](Cc2ccccc2)C(=O)N1CC(CCN1CCC2(CC1)C[S+]([O-])c1ccccc12)c1cccc(Cl)c1 (stereo partly drawn),inhibition,[9],39%
CC(CCN1CCC(c2ccccc2)CC1)(CN1C(=O)N[C@H](Cc2c[nH]c3ccccc23)C1=O)c1ccccc1 (stereo partly drawn),inhibition,[1],80%
O=C1CC2(CCN(CCC(CN3C(=O)N[C@H](c4ccccc4)C3=O)c3cccc(Cl)c3)CC2)c2ccccc21 (stereo partly drawn),IC50,[2],606 nM
O=C1N[C@H](Cc2c[nH]c3ccccc23)C(=O)N1CC(CCN1CCC(c2ccccc2)CC1)c1ccccc1 (stereo in doubt; 22),inhibition,[1],71%
CC(CCN1CCC(c2ccccc2)CC1)(CN1C(=O)N[C@H](Cc2c[nH]c3ccccc23)C1=O)c1cccc(Cl)c1 (stereo partly drawn),IC50,[2],100 nM
O=C1N[C@H](Cc2ccccc2)C(=O)N1CC(CCN1CCC(c2ccccc2)CC1)c1cccc(Cl)c1 (stereo partly drawn),IC50,[2],250 nM
O=C1CC2(CCN(CCC(CN3C(=O)N[C@H](Cc4ccccc4)C3=O)c3cccc(Cl)c3)CC2)c2ccccc21 (stereo partly drawn),IC50,[2],200 nM
CN1C(=O)N(CC(CCN2CCC(c3ccccc3)CC2)c2cccc(Cl)c2)C(=O)[C@H]1Cc1ccccc1 (stereo partly drawn),inhibition,[1],52%
C=CCN(C(=O)OCc1ccccc1)C1CCN(CCC(C)(CN2C(=O)N[C@H](Cc3c[nH]c4ccccc34)C2=O)c2cccc(Cl)c2)CC1 (stereo partly drawn),IC50,[3],> 1000 nM
same,IC50,[4],> 1000 nM
same,IC50,[5],> 1000 nM
same,IC50,[7],> 1000 nM
same,IC50,[8],> 1000 nM
same,IC50,[2],32 nM
C[C@H]1NC(=O)N(CC(CCN2CCC(c3ccccc3)CC2)c2cccc(Cl)c2)C1=O (stereo partly drawn),inhibition,[10],43%
O=C1N[C@H](Cc2csc3ccccc23)C(=O)N1CC(CCN1CCC(c2ccccc2)CC1)c1cccc(Cl)c1 (stereo partly drawn),inhibition,[1],67%
CS(=O)(=O)N1CC2(CCN(CCC(CN3C(=O)N[C@H](Cc4ccccc4)C3=O)c3cccc(Cl)c3)CC2)c2ccccc21 (stereo partly drawn),inhibition,[1],55%
O=C1N[C@H](Cc2ccccc2)C(=O)N1CC(CCN1CCC2(CC1)CSc1ccccc12)c1cccc(Cl)c1 (stereo partly drawn),inhibition,[9],24%
O=C1[C@@H](Cc2ccccc2)N(Cc2ccccc2)C(=O)N1CC(CCN1CCC(c2ccccc2)CC1)c1cccc(Cl)c1 (stereo partly drawn),inhibition,[1],40%
C=CCN(C(=O)OCc1ccccc1)C1CCN(CCC(C)(CN2C(=O)N[C@H](Cc3c[nH]c4ccccc34)C2=O)c2ccccc2)CC1 (stereo partly drawn),IC50,[3],> 1000 nM
same,IC50,[4],> 1000 nM
same,IC50,[5],> 1000 nM
same,IC95,[6],> 3000 nM
same,IC50,[7],> 1000 nM
same,IC50,[8],> 1000 nM
same,IC50,[2],5 nM
C=CCN(C(=O)OCc1ccccc1)C1CCN(CCC(CN2C(=O)N[C@H](Cc3c[nH]c4ccccc34)C2=O)c2cccc(Cl)c2)CC1 (stereo partly drawn),IC50,[3],> 1000 nM
same,IC50,[4],> 1000 nM
same,IC50,[5],> 1000 nM
same,IC95,[6],12500 nM
same,IC50,[7],> 1000 nM
same,IC50,[8],> 1000 nM
same,IC50,[2],3 nM
